# Measured values taken from a melting point compilation (Tetko et al.; mined from patent text by program, amines drawn as free bases though some values may be those of a salt).
row,SMILES,melting point [°C]
1,CCn1c(=O)oc2cc([N+](=O)[O-])cc(F)c21,121 to 122
2,CCN(C)C1CCCN(C(=O)c2ccc(NC(=O)c3ccccc3C)cc2)c2ccccc21 (stereo not given),192 to 193
3,OCc1nc2n(n1)-c1ccc(Cl)cc1N(c1ccccc1)C2,204 to 207
4,CC(C)(/C=C/c1ccc(C(=O)O)cc1)c1ccc2c(c1)C(C)(C)CCC2(C)C,219 to 220
5,O=C1OC(O)c2c(F)ccc(F)c21 (stereo not given),125 to 128
6,CC1NC(=O)NN=C1c1ccc(OCC(=O)NCCN2CCN(S(C)(=O)=O)CC2)c(Cl)c1 (stereo not given),236 to 238
7,CC(C)(C)OC(=O)C=Cc1ccc2ccccc2c1,74 to 75
8,Nc1cnc(-c2ccc(Br)cc2)c(Cl)n1,254 to 256
9,CCOC(=O)Cc1ccc(N(C)c2nc(=O)c3cccnc3s2)cc1,156 to 159
10,COC(=O)c1cccc(C(=O)c2cn(CC(=O)N(C)CCc3ccccc3)c3ccc(OCc4ccccc4)cc23)c1,224 to 230
11,CC1(C)Oc2ccc(C#N)cc2[C@@H](N2CCN(c3ccccc3)C2=O)[C@@H]1O (relative stereo),205 to 206
12,COCOC1=C(C(N)=O)CC(C#N)(c2ccc(OC)c(OCC3CC3)c2)CC1 (stereo not given),120 to 122
13,O=C(O)[C@H](Cc1ccc(C(F)(F)F)cc1)[C@@H](O)c1ccc(Oc2ccccc2)cc1 (racemic),128 to 129
14,CC(C)COC(=O)Nc1ccc(C2CCSCC2)cc1,126 to 128
15,Cc1c(N)c(C)c2c(c1CCCO)OCC2c1ccc(C(C)C)cc1 (stereo not given),110 to 111
16,CCOC(=O)c1cn2c(nc1=O)CCCCC2,156 to 157
17,N#Cc1cc(C(=O)NNC(=O)c2occc2-c2cccc(OCc3ccccc3)c2)ccc1O,190 to 195
18,O=c1c2cc(F)c(Cl)nc2n(-c2ccccc2F)c(=O)n1OCc1ccccc1,199 to 200
19,Cc1nc(C)c(CSC(=O)c2ccccc2)c(O)c1O,174 to 177
20,CC(C)=CCC(O)C(C)C1CC=C2C3=C(CCC21C)C1(C)CCC(O)C(C)(C)C1CC3 (stereo not given),70 to 72
21,Cc1ccc([N+](=O)[O-])cc1S(=O)(=O)n1ccnc1,119 to 120
22,COc1ccc(-c2[nH]ccc2S(=O)(=O)C(F)(F)F)cc1,138 to 140
23,CC(=O)OCC1OC(F)C(N2C(=O)c3ccccc3C2=O)C(OC(C)=O)C1OC(C)=O (stereo not given),116
24,Cc1cc(C#Cc2ccc(F)cc2)nc(Oc2cc(C(F)(F)F)nn2C)c1,86 to 87
25,CC(C)(C)OC(=O)Nc1cc(OCc2ccccc2)c(OCc2ccccc2)cn1,163

row,SMILES,melting point [°C]
1,Cc1nn(-c2ccc([N+](=O)[O-])cc2F)c(=O)[nH]1,211 to 212
2,CCOC(=O)c1c(C)nc2c(cnn2CCC(C)CC)c1N (stereo not given),217 to 222
3,CC(c1ccc(-c2ccc(F)cc2)cc1)N1CCN(CCO)CC1 (stereo not given),120 to 123
4,COC(=O)C1=C(O)c2cc(OC)ccc2S(=O)(=O)N1,183
5,Cc1ccc2cccc(OCc3c(Cl)ccc(S(=O)(=O)N4CCC[C@H]4C(=O)NCCCNC(=O)c4ccc(C(N)=NO)cc4)c3Cl)c2n1,120 to 124
6,OC(Cc1ccccn1)c1ccccc1 (stereo not given),105 to 107
7,COc1cc(C)ccc1OC(=O)c1ccccc1,73 to 75
8,O=C1Cc2c(cccc2N(CCN(Cc2ccccc2)C(=O)C(F)(F)F)C(=O)C(F)(F)F)N1,108 to 111
9,OC1CC=C(c2ccc(C(F)(F)F)cc2)CC1 (stereo not given),104 to 106
10,Cc1cc(-c2nnc3c4ccccc4c(OCc4cnc5ccccc5n4)nn23)no1,243 to 245
11,CCOC(=O)C1=C(C)NC(N)=C(C(=O)OC(C)C)C1c1ccccc1[N+](=O)[O-] (stereo not given),139
12,CCOc1cc(OCc2ccc(OCc3nc(-c4ccccc4)oc3C)cc2)ccc1CCC(=O)O,135 to 136
13,CCOc1nc(N(C)C)nc(=O)[nH]1,215 to 216
14,CC(=O)Nc1ccc(OCCOc2ncc(Cl)cn2)cc1,160
15,Cc1nc(C)c(-c2ccc(OC3SCC(O)C(O)C3O)cn2)s1 (stereo not given),175
16,OC1CC2OCCN3CCC4c5ccccc5N1C4C23 (stereo not given),180
17,CCOC(=O)c1sc(Oc2ccc(OCc3ccc4ccccc4n3)cc2)c2c1CCc1cnn(C)c1-2,269 to 270
18,O=c1cc(Oc2cccc(OCc3ccccc3)c2)c2ccccc2[nH]1,262 to 265
19,O=C1Nc2ccccc2C(=O)N2CC[C@@H]12,217 to 218
20,Cc1ccc(C(=O)c2ccc(C)cc2F)c(F)c1,84 to 85.5
21,CCCc1nccn1-c1nc(Cl)nc2nc[nH]c12,224 to 225
22,COCOc1c(-c2ccc(C(=O)O)cc2)cccc1-c1ccc2c(c1)C(C)(C)CCC2(C)C,74
23,O=S(=O)(c1ccccc1)c1c(-c2ccc(Cl)cc2)[nH]c(Br)c1Br,> 200
24,NCCc1c[nH]c2ccc3c(=O)n(CC4CCCCO4)ccc3c12 (stereo not given),260 to 262
25,COc1ccc2c(c1)OC(C)(C)CC2=O,77 to 78
